The values that follow come from a melting point compilation (Tetko et al.; mined from patent text by program, amines drawn as free bases though some values may be those of a salt).

Bounds are passed on as bounds.

Consider `CC(C)(C)C(=O)SC[C@H](NC(=O)C(C)(C)S)C(=O)O`, for which the melting point (as a rule, the temperature of the solid-liquid transition) is 115 to 117 °C. Consider `O=C(O)C(=O)c1ccc(OCCOC2CCc3ccccc3C2)cc1` (stereo not given), for which the melting point fell in the range of 119 to 120 °C.

The compound `CC12CCC(=O)C([N+](=O)[O-])=C1CCC1C2CCC2(C)C(C(O)CO)CCC12` (stereo not given) displayed a melting point of 183 to 185 °C. The result for `Nc1cc(-c2ccco2)ccc1Nc1cccc(-n2ccnc2)c1` reads 191 to 194 °C; that for `Cc1ccc(-c2ccc3c(c2)C=C(C(=O)Nc2ccc(CN(C)C4CCOCC4)cc2)CCN3C)cc1`, 178 to 181 °C; that for `O=C1c2ccccc2C(=O)N1CCCOc1cccc([N+](=O)[O-])c1`, 149 to 152 °C.

`Cc1cc(SC(C)C)c(NC(=O)CCCCCSc2nc3ccccc3o2)c(SC(C)C)n1` came in with a melting point of 98 to 100 °C. Compound `CCCS(=O)(=O)C(c1cnc(C(N)=O)cc1C)c1c(F)ccc(F)c1F` (stereo not given) returned a melting point of 202 to 204 °C. The result for `CCOC(=O)c1cccc(/C=C/C(=O)c2cc(O)ccc2[N+](=O)[O-])c1` reads 157 to 159 °C; that for `CN1CCN(CC(=O)C2CC3c4cccc5[nH]cc(c45)CC3N(C)C2)CC1` (stereo not given), 198 to 202 °C; that for `CC(=O)NC1CC(N)(C(=O)O)C2C(C(=O)O)C12` (stereo not given), above 275 °C. The result for `CC(C)(C)n1nc(-c2ccc(Cl)cc2)c2c(N)c(C#N)cnc21` reads 213 to 215 °C; that for `O=C(NCC12CC3CC(CC(C3)C1)C2)c1cc(NCCNCC(O)c2ccccc2)ccc1Cl` (stereo not given), 63 to 64 °C; that for `CCCCCCCCCCCC(=O)OC1CC(c2ccccc2)N(O)C(c2ccccc2)C1C` (stereo not given), 84 to 91 °C. The result for `O=C(O)c1csnc1-c1ccc(Cl)c(Cl)c1` reads 247 to 248 °C; that for `O=[N+]([O-])c1cc(Br)ccc1-c1ccc(F)cc1F`, 52 to 53 °C.

`CCOCS(=O)(=O)c1ccc(C(CC2CCCC2)C(=O)Nc2nc3ccc(OC)nc3s2)cc1` (stereo not given) gave a melting point of 158 to 160 °C.

`CCOC(=O)C(F)Cc1ccc(OCCN(C)c2nc3ccccc3o2)cc1` (stereo not given) gave a melting point of 65 to 67 °C. The result for `COc1cc(OC)c(N2CCCC2)cc1/C=C/C(=O)c1ccc(S(=O)(=O)NCC(=O)O)cc1` reads 155 to 158 °C. The result for `O=C(O)c1cn(C2CC2)c2nc(N3CCC(c4cccnc4)C3)c(F)cc2c1=O` (stereo not given) reads 226 to 228 °C; that for `COC(=O)CCCc1cc2nc(Cl)ccc2n1S(=O)(=O)c1ccc(F)cc1`, 119 °C. As to `CCOC(=O)C(O)(Cc1ccc2ccccc2n1)C(=O)OCC`, the melting point was in the range of 71 to 72 °C. The result for `C=C=CC(C)(O)c1ccc(Br)cc1` (stereo not given) reads 45 to 50 °C; that for `NS(=O)(=O)c1cnc(-c2cn(-c3nc(-c4ccc(Cl)cc4)cc(C(F)(F)F)n3)cn2)s1`, 263 °C; that for `Cc1ccc(S(=O)(=O)Nc2ccc(C#N)cc2)cc1`, 182 to 184 °C.

`COc1ccc2c(-c3ccccn3)noc2c1Cl` had a melting point of 164 to 166 °C. The compound `COc1ccc2cc([C@H](C)C(=O)OCCCN3C(=O)OC[C@H]3C(C)(C)SN=O)ccc2c1` gave a melting point of 116 to 117 °C.

The compound `COc1c(O)cc(F)cc1-c1c(Cl)cccc1Cl` displayed a melting point of 65 to 67 °C. As for `Cn1c(CO)nc2c(N)cc(Br)cc21`, the melting point was in the range of 216 to 218 °C. Compound `Cc1cc(F)c(N)cc1-n1cc(C(=O)O)c(=O)c2cc(F)c(N3CC(O)C3)c(C)c21` returned a melting point of 147 to 151 °C.

The compound `CC1(C)Oc2ccc(C#N)cc2[C@@H](NC(=S)Nc2ccccc2)[C@@H]1O` (relative stereo) came in with a melting point of 183 to 185 °C.

Compound `C#CCN(Cc1ccc2nc[nH]c(=O)c2c1)c1ccc(C(=O)NCc2cccnc2)cc1` yielded a melting point of 137 to 139 °C. The result for `O=c1c2ccccc2oc2c(C3CCCCC3)cccc12` reads 122 to 124 °C. `CCC(C)(Oc1ccc(F)cc1F)C(=O)Nc1nc(CC(=O)O)cs1` (stereo not given) yielded a melting point of 148 to 149 °C. On to `O=S(=O)(NCCO)c1ccc(-c2ccc(S(=O)(=O)NCCO)cc2)cc1`, for which the melting point is 203 to 206 °C. The result for `NC1C2CN(C(=O)Nc3ccc(F)cc3)CC12` (stereo not given) reads 150 °C. In the case of `COCC(=O)Nc1cc(C#N)cc(NC(=O)COC)c1Cl` it was 173 to 174 °C.

For `CN(C)CC#Cc1ccc2c(Nc3ccc(Cl)cc3Cl)c(C#N)cnc2c1`, the melting point is 144 to 145 °C. The result for `O=S1(=O)N=C(NCc2ccco2)Nc2cc(Cl)sc21` reads 224 to 225 °C.

`C=CCOc1ccc(CC(=O)NCC(=O)O)cc1Cl` registered a melting point of 115 to 119 °C. In the case of `COc1cccc(Oc2cccc(-c3c(O)c4ccc(Cl)cc4[nH]c3=O)c2)c1` it was 268 to 270 °C. The result for `O=C(NCCCSc1ccncc1)c1cc(Br)c(Br)s1` reads 129 to 130 °C; that for `CC(C)n1nc(-c2nc(C#N)c(N)nc2-c2ccccc2)ccc1=O`, 231 to 233 °C; that for `CCc1cc2c(cc1OC(C)=O)CCC1C2CCC2(C)C(C#N)=CCC12` (stereo not given), 176 to 177 °C. The result for `Cc1c(C)c(S(=O)(=O)C[N+](=O)[O-])c(C)c2c1OC(C)(C)CC2` reads 98 to 100 °C; that for `CCCCOc1ccc(S(=O)(=O)C2(C(=O)NO)CCN(Cc3ccc(OCCN4CCCCC4)cc3)CC2)cc1`, 155 °C; that for `CCOc1ccc(C(=O)N(CC)CC)c(OCC)c1`, 45 to 56 °C. Compound `CCCCCCCCc1c(C)nc2cc(C)nn2c1O` showed a melting point of 199 °C. The result for `CN(C(=O)COc1nnc(Cl)s1)c1ccccc1` reads 101 °C. In the case of `CCOC(=O)c1cc(OC)c(OCc2nc(C)c(C)nc2C)c(OC)c1` it was 122 to 123 °C; in that of `CCN(CC)CCc1c(C)[nH]c(C=C2C(=O)[NH+]([O-])N=C2c2cnccn2)c1C` (stereo not given), 192 °C. In the case of `N[C@@H](Cc1ccccc1)c1nc2c(C(F)(F)F)cccc2c(O)c1C(=O)Nc1nccs1` it was 234 °C; in that of `CC(C)(CO)COc1ccc(N)cc1C#N`, 194 to 196 °C. `O=C(Nc1ccc2[nH]c(CO)cc2c1)c1cc2ccccc2o1` showed a melting point of 164 to 165 °C. `O=c1c2cc(F)c(N3CCCC3)nc2n(-c2ccccc2F)c(=O)n1O` registered a melting point above 250 °C. In the case of `Cc1c(C)n(CC=CCl)c2c(OCc3ccc(F)cc3)nncc12` it was 110 to 115 °C. Turning to `Cc1sc(C2=NOC(c3cc(Cl)cc(Cl)c3)(C(F)(F)F)C2)cc1C(=O)NCC(=O)NCC#N` (stereo not given), the melting point was 158 to 161 °C. In the case of `CCCCCCOC(=O)NCc1ccc2c(c1)C(=O)N(C1CCC(=O)NC1=O)C2=O` (stereo not given), the melting point is 111 to 113 °C. In the case of `CC1(CO)COC(Cn2ccnc2)(c2ccc(Cl)cc2Cl)OC1` (stereo not given) it was 174 to 175 °C; in that of `CCCCOC(=O)Oc1ccc(-c2ccc(C#N)cc2)cc1`, 64.8 to 65.7 °C; in that of `CCC12CCC3c4ccc(OC)cc4CCC3C1C=CC2=O` (stereo not given), 158 to 160 °C. In turn, `O=C(OCC1c2ccccc2-c2ccc(S(=O)(=O)O)cc21)ON1C(=O)CCC1=O` (stereo not given) gave a melting point of 140 to 146 °C. The result for `CC(C)NC(=O)c1cc2[nH]cnc2c(Cl)c1NC(=O)c1cc(C(F)(F)F)nn1-c1ncccc1Cl` reads 200 to 203 °C; that for `CS(=O)(=O)c1ccc(-c2cc(C(F)F)nn2-c2ccc(S(N)(=O)=O)cc2)cc1`, 209 to 210 °C.

Consider `Cc1cc(C)nc(S(=O)(=O)c2ccccc2)c1`, for which the melting point lay within 106 to 107 °C.

For `COCCN1CCSc2ccc(Nc3ncc(Cl)c(N[C@@H]4CCCC[C@H]4NS(C)(=O)=O)n3)cc2C1`, the melting point lay within 140 to 143 °C. The result for `COc1cc2c(cc1Br)-c1c(-c3cncs3)c3c(n1CC2)C(=O)N(C(C)(C)C)CCOC3` reads 219 to 220 °C. `Nc1nc2ncn(O)c2c(=O)[nH]1` showed a melting point above 300 °C. In the case of `CC(C)(Oc1ccc(NC(=O)c2cc(Cl)cc(Cl)c2)cc1)C(=O)O`, the melting point fell in the range of 206 to 207 °C. As for `CCOC(=O)c1ccc2[nH]ccc2c1`, the melting point is 94 to 95 °C. The result for `O=Cc1sc(Cl)c(Cl)c1Cl` reads 81 to 82 °C. The result for `CCc1n[nH]c(CC)c1CCCCCCOc1ccc(O)cc1Cl` reads 109 to 111 °C; that for `O[C@@H]1CNC[C@H]1Oc1cccc(Cl)c1` (relative stereo), 128 to 129 °C; that for `COc1cc(OC)nc(Cc2ccccc2NC(=O)OC(C)(C)C)n1`, 98 to 100 °C. The result for `Oc1noc2ncccc12` reads 258 °C; that for `COc1cccc(C(C(N)=O)(c2c(Cl)cncc2Cl)C2CCCC2)c1` (stereo not given), 106 to 107 °C.

Take `CCOc1cc2c(cc1OCC)C(C(S)(C#N)c1ccccc1)=NCC2` (stereo not given): the melting point fell in the range of 118 to 119 °C. On to `COC(=O)c1cccc(-c2cccc([N+](=O)[O-])c2)c1`, for which the melting point fell in the range of 88 to 89 °C. The result for `CC1(C)CC(=O)C(C(=O)Nc2cc(F)cc(F)c2)C(=O)C1F` (stereo not given) reads 131 to 132 °C; that for `Cc1nc(-n2cnn(Cc3ccc(F)cc3)c2=O)sc1CO`, 164 to 166 °C. The result for `Cc1cccc(C)c1N(C(C)C(=O)NN)S(C)(=O)=O` (stereo not given) reads 115 to 118 °C; that for `CCOC(=O)c1c(S)nc(-c2ccccc2)c([N+](=O)[O-])c1C(=O)OCC`, 129 to 132 °C; that for `Cn1nc(Sc2cc(C(F)(F)F)ccc2C#N)n(C)c1=O`, 113 °C. The result for `O=C1Cc2cccc3c2N1C(C(F)(F)F)=C(F)S3` reads 128 to 130 °C. `O=C(NOCCO)c1ccc(F)cc1Nc1ccc(I)cc1F` yielded a melting point of 117 to 119 °C. In the case of `CC12C=CC(C1)C(C(N)=O)C2(C(N)=O)c1cccc(Br)c1` (stereo not given) it was 111 to 113 °C; in that of `O=c1c(Cl)c(Cl)cnn1-c1cccc(COc2ccccc2)c1`, 92 to 94 °C. The result for `C=CC(=O)N1CC(c2ccc(Cl)cc2)Sc2ccccc21` (stereo not given) reads 122 to 124 °C. In the case of `COc1cc2c3ccc(OC)c(OC)c3n(C(=O)c3ccc(-c4ccccc4)cc3)c2cc1OC` it was 150 to 153 °C; in that of `COC(=O)NCCOC(=O)C(C)Oc1ccc(Oc2cnc3cc(Cl)ccc3n2)cc1` (stereo not given), 103 to 104 °C.
